The values that follow come from paper PMC8125234, “Cardiolipin Stabilizes and Increases Catalytic Efficiency of Carnitine Palmitoyltransferase II and Its Variants S113L, P50H, and Y479F” (International Journal of Molecular Sciences, 2021).

Experiment [1] has as its target T1, CPT II variant Y479F (Homo sapiens, UniProt P23786, Y479F).
T1 construct: made in house; host or cells: Escherichia coli BL21Gold DE
T1 sequence (P23786 26-658 Y479F): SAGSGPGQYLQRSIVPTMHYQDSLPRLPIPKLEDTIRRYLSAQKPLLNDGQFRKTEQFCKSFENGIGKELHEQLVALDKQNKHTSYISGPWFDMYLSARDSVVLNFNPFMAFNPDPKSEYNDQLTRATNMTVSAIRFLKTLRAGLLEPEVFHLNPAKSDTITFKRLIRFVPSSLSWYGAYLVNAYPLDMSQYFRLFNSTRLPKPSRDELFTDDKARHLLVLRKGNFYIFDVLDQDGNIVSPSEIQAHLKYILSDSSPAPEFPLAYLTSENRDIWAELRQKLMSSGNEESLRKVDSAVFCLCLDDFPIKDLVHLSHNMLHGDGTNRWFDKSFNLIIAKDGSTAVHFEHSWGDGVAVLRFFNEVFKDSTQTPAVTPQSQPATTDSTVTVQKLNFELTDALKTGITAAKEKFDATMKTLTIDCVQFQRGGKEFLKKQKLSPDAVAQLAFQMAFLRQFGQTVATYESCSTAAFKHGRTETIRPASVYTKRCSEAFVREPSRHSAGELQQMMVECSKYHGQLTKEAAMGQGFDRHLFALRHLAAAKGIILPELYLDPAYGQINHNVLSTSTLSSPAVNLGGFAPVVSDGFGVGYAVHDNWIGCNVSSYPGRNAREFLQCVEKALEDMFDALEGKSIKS
Briefly: Influence of CL on the enzyme activity. It counts as biochemical. Here is the method: (§1) Then, the effect of CL, as a potential stabilizing agent, was investigated in the activity assay. Therefore, 0.1 mg/mL recombinant enzyme was incubated with various concentrations of CL (0.125, 0.25 or 0.5 mM) or buffer at 30 and 42 °C, respectively.
(§2) Before activity measurements, the storage buffer of the enzymes was replaced with assay buffer (50 mM KH2PO4, 120 mM KCl, 1 mM EDTA-Na4) using vivaspin turbo 4 tubes (Satorius Stedim biotech GmbH, Göttingen, Germany) at 4 °C. The pH of assay buffer was adjusted with KOH to 7.4. The storage buffer was diluted at least 1:500 in assay buffer. In addition, before each experimental set up, the protein samples were centrifuged at 16,000× g for 5 min at 4 °C to remove any micro-aggregates. After that, the protein concentration was determined using bicinchoninic acid (BCA) protein assay kit (Thermo Fisher Scientific GmbH, Berlin, Germany). The enzyme activity of recombinant CPT II was performed following Rufer et al. with modifications described elsewhere. […] After pre-conditioning the mixture to 25 °C for 2 min, the reaction was started by adding 15 nM of recombinant enzyme. The reverse reaction of CPT II was detected with the enzyme activity assay. CPT II catalyzed the transfer of fatty acid residue from Pal-CoA to L-carnitine with release of CoA and Pal-carnitine. The released CoA was then detected by the reaction of the free thiol group with DTNB, forming 5-mercapto-(2-nitrobenzoic acid). This compound has a molar extinction coefficient of 13,600 M^−1 cm^−1 at a wavelength of 410 nm, and its formation was followed spectroscopically. […] The slope of the progress curve was used to determine the reaction velocity.
(§3) The purified enzymes were incubated at different temperatures (30, 37, 40 and 42 °C) using a protein concentration of 1 mg/mL during the incubation periods to investigated the half-lives of WT and variants. 0.1 mg/mL enzyme was incubated with or without CL (0.125, 0.25 and 0.5 mM) in the assay buffer. The enzyme activities were determined by adding 15 nM of pre-incubated enzyme according to Section 4.3 after various incubation times up to 60 min at an assay temperature of 25 °C. Experiments were done at least three times independently as double determination.

For experiment [2], the target named is T2, CPT II variant P50H (Homo sapiens, UniProt P23786, P50H).
T2 construct: made in house; host or cells: Escherichia coli BL21Gold DE
T2 sequence (P23786 26-658 P50H): T1 sequence (P23786 26-658 Y479F) with P25H, F454Y
Briefly: Influence of CL on the enzyme activity. It counts as biochemical. Particulars: for Maximal Enzymatic Activity: w/o CL = 100. The protocol: as §1, §2, §3

Substitutions are numbered along the chain they refer to.

For Cardiolipin [CL], the “Increase of the enzymatic activity by CL” value was 1.8 fold in experiment [1] and “marginal effect” in experiment [2]. For the same substance, the “Maximal Enzymatic Activity” value is reported as 151.7 ± 7.6% in experiment [1] (0.5 mM CL, w/o CL = 100); 113.0 ± 7.6% in experiment [2] (0.25 mM CL); 94.5 ± 6.4% in experiment [2] (0.5 mM CL). In addition, the “Enzymatic activity in the presence of CL” value was found to be 175% in experiment [1] (before incubation periods) and 113% in experiment [2] (before incubation periods). Moreover, in experiment [2] (incubation at 42 °C), the “Effect of CL on maintenance of enzyme activity” value is “almost no effect”.
